From patent US20190225683A1, “TARGETING OXAZOLE STRUCTURES FOR THERAPY AGAINST INFLAMMATORY DISEASES” (THE BRIGHAM AND WOMEN'S HOSPITAL, INC., priority 2015, published 2019)
“Also recorded” adds a separate entry of the source. One block for each compound: values may come before it.

Columns and labels:
MODE-K cells = MODE-K cells stimulated with compounds, Mttp and Cxcl16 transcripts by qPCR; assay type: cell-based, mouse; conditions: for Cxcl16 transcript expression / Mttp transcript expression: MODE-K cells, 48 hours, qPCR normalized to β-actin; for Transcriptional pattern of NKT signature genes (Mttp, Cxcl16): MODE-K epithelial cells
Protocol: Mode-K cells were stimulated for 48 hours with the listed compounds and MUT) (2A) and Cxcl16 (2B) transcript express was quantified by qPCR normalized to β-actin, a housekeeping gene. Graph color coded to indicate control, OxC, and ITE compounds. […]
Kinetic transcript profiles of Mttp, Cxcl16, CD1d, and Hsp110 are assessed by qPCR normalizing transcript abundance to house keeping gene, (3-actin. Protein expression is quantified by immunoblot (MTTP, HSP110) or ELISA (CXCL16). CD1d protein expression is monitored using monoclonal antibodies conjugated to phycoerythrin and fluorescein isothyocynate to assess CD1d trafficking to and from the cell surface.[89]Stimulatory ligands are washed out prior to administration of αGC, and conditioned cells are co-cultured over night with 4 classes of invariant (DN32.D3, 24.7, 24.8) or non-variant (14S.6) to assess αGC specific and autoreactive responses to epithelial and myeloid cell lipid presentation. Production of IL-10, IL-4, IL-13, IFNγ response to epithelial and myeloid, and the source of cytokine production (APC or NKT) are determined using gluteraldehyde fixation. Primary iNKT cells are isolated from colonic lamina propria or peripheral organs (liver, spleen, mesenteric lymph node) and purified by FACS (BD ARIA-II Sorter) using monoclonal antibodies against CD45, TCRI3, CD3E, and CD1d:αGC loaded tetramer (APC conjugated) and exclusion of unloaded CD1d tetramer (PE). […] Strand specific libraries are generated using 500 ng RNA input and subject to paired-end 100 bp read sequencing using a HISEQ2000 at the Dana Farber Cancer Institute. Sequence reads are aligned to the mouse mm10 reference genome using Tophat alignments restricted to uniquely mapping reads with <2 possible mismatches permitted. […] Candidate transcripts arevalidated in primary IECs (EpCAM+ CD45−) or mucosal APCs by qPCR.

[1] = test system: AhR response elements (XRE); conditions: cited from earlier work
[2] = Colitis model: skin pre-sensitization, then intra-rectal administration; assay type: in vivo, mice
Protocol: Colitis scores were blindly performed by a pathologist.
Distal colon explants were cultured overnight and IL-10 (6A) and IL-13 (6B) production was measured by ELISA.
Changes in weight are monitored and colons harvested on day 3 and day 5 post-rectal challenge for histopathological analysis. Distalhyperemia in the mucosa, cellular infiltration in the lamina propria, elongation of colonic mucosa, epithelial erosion. The number of conventional T cells, NKT cells and mucosal APC subsets are enumerated by established flow cytometry protocols.[11] In addition, kinetic cytokine profiles are analyzed to verify that OxC colitis phenocopies molecular signatures associated with oxazolone colitis. […] [8] In addition, colonic IECs and lamina propria mononuclear cells are sorted by FACS and analyzed for Mttp and Cxcl16 expression by qPCR.

AhR reporter = AhR reporter assay; assay type: cell-based; conditions: FIG. 14
NFkB reporter = NFkB reporter assay; assay type: cell-based; conditions: FIG. 14
24.7 NKT hybridoma = test: Compound-conditioned MODE-K cells incubated with alpha-galactosylceramide, co-cultured with 24.7 iNKT hybridoma, IL-10 by ELISA; assay type: cell-based, mouse; conditions: MODE-K conditioned with compound or lysate, αGC presented on CD1d
Protocol: FIGS. 3A-3B depict in accordance with an embodiment of the invention, (3A) MODE-K cells transfected with control- or AhR-targeted siRNA. After 48 hours, these cells were stimulated with the compounds indicated for 48 hours. Cells were washed and incubated with alpha-galactosylceramide and subsequently co-cultured with the 24.7 NKT hybridoma. IL-10 production was measured by ELISA. (3B) Hepatocytes from WT or AhR-deficient mice were stimulated as in (3A).
FIGS. 7A-7B depict in accordance with an embodiment of the invention, (7A) structure of the OxC compound, B17 microcin. […] Cells were incubated with aGC and co-cultured with24.7 iNKT hybridoma and IL-10 production was measured. “[…]”, “G2QG2”, “GGNG”, and “GSHI” are disclosed as SEQ ID NO: 3, SEQ ID NO: 6, SEQ ID NO: 5, and SEQ ID NO: 2, respectively.
Kinetic transcript profiles of Mttp, Cxcl16, CD1d, and Hsp110 are assessed by qPCR normalizing transcript abundance to house keeping gene, (3-actin. Protein expression is quantified by immunoblot (MTTP, HSP110) or ELISA (CXCL16). CD1d protein expression is monitored using monoclonal antibodies conjugated to phycoerythrin and fluorescein isothyocynate to assess CD1d trafficking to and from the cell surface.[89]Stimulatory ligands are washed out prior to administration of αGC, and conditioned cells are co-cultured over night with 4 classes of invariant (DN32.D3, 24.7, 24.8) or non-variant (14S.6) to assess αGC specific and autoreactive responses to epithelial and myeloid cell lipid presentation. Production of IL-10, IL-4, IL-13, IFNγ response to epithelial and myeloid, and the source of cytokine production (APC or NKT) are determined using gluteraldehyde fixation. […] Strand specific libraries are generated using 500 ng RNA input and subject to paired-end 100 bp read sequencing using a HISEQ2000 at the Dana Farber Cancer Institute. Sequence reads are aligned to the mouse mm10 reference genome using Tophat alignments restricted to uniquely mapping reads with <2 possible mismatches permitted. […]

[3] = target: T1, aryl hydrocarbon receptor (AhR) (Homo sapiens, UniProt P35869); conditions: previous studies; cited from earlier work
T1 sequence (P35869 11-848): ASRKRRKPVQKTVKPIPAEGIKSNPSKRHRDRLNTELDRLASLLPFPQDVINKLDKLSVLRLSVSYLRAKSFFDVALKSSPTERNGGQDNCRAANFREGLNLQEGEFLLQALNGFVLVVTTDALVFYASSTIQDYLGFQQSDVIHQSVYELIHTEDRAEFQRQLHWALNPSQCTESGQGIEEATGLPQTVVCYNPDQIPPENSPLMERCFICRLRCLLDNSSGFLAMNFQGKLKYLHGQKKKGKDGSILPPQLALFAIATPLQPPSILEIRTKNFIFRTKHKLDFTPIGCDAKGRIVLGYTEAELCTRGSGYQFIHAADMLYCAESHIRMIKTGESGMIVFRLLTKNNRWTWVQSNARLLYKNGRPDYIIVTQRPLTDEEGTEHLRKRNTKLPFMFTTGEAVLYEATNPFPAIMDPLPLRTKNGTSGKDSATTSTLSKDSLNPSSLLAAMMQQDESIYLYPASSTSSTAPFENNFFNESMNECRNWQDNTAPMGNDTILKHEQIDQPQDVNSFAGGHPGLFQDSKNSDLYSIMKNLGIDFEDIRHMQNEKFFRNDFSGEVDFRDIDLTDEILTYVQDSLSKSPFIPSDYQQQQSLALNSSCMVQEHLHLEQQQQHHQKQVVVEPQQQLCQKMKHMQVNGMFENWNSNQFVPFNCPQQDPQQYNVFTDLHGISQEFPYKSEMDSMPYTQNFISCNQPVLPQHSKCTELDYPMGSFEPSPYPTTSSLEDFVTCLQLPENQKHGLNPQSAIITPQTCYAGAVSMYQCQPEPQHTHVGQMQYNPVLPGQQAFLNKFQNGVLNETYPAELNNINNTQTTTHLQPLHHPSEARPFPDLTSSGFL

AhR [4] = target: T2, AhR (Homo sapiens, UniProt P35869); conditions: hepatocyte reporter assay; cited from earlier work
T2 construct: endogenous in cells; host or cells: HepG2
T2 sequence (P35869 11-848): T1 sequence (P35869 11-848)

AhR [5] = test: AhR targets Cyp1a1 and IDO1 by qPCR in MODE-K cells with control or AhR-targeted siRNA; assay type: cell-based, mouse; conditions: MODE-K cells or primary hepatocytes
Protocol: FIGS. 8A-8C depict in accordance with an embodiment of the invention, MODE-K transfected with control or AhR-targeted siRNA. After 48 hours, MODE-K cells were stimulated with the indicated compounds. Cyp1a1 (8A) or IDO1 (8B, 8C) were quantified by qPCR.
Stimulation of MODE-K cells with OxC compounds but not control compounds differentially regulates two well characterized AhR targets: Cyp1a1,[68] and IDO1. [FIG. 8] Specific siRNA mediated knockdown of the AhR in MODE-K cells diminished expression of both AhR targets in response to OxC stimulation.

[6] = compared to vehicle treated control animals

Compound: 1-methyl-pyrroline [MP]
Cxcl16 transcript expression (MODE-K cells): loss of these biological effects | Mttp transcript expression (MODE-K cells): loss of these biological effects

Compound: COC(=O)c1csc(C(=O)c2c[nH]c3ccccc23)n1 [ITE, 2-(1H-Indol-3-carbonyl)-4-thiazolecarboxylic acid methyl ester]
Concentration activating XRE [1]: picomolar concentrations

Compound: CC1CC(C)C(C)C1 (stereo not shown) [TMC, 1,2,4-trimethylcyclopentane]
Cxcl16 transcript expression (MODE-K cells): loss of these biological effects | Mttp transcript expression (MODE-K cells): loss of these biological effects

Compound: CC1=NC(C)OC1C (stereo not shown) [TMO, 2,4,5-trimethyl-2,5-dihydro-1,3-oxazole]
Cxcl16 transcript expression (MODE-K cells): induce CXCL16 | Mttp transcript expression (MODE-K cells): suppress Mttp | Colitis phenotype in vivo [2, 6]: phenocopies the inflammation associated with oxazolone | Colon shortening [2, 6]: colon shortening | Expression of Th2 cytokines [2, 6]: expression of Th2 cytokines characteristic of ulcerative colitis | Histopathology, blind scoring by a pathologist [2, 6]: histopathology (based on blind scoring by a pathologist) | Weight loss [2, 6]: increased weight loss | AhR reporter activation (AhR reporter): activate an AhR reporter | NFkB reporter activation (NFkB reporter): not an NFkB reporter | IL-10 production by iNKT cells co-cultured with conditioned cells (24.7 NKT hybridoma): diminished; also recorded: inhibited IL-10 production

Compound: C=CC1(C)OC(=O)N(c2cc(Cl)cc(Cl)c2)C1=O (stereo not shown) [Vinclozolin, vinclozolin]
AhR ligand status [3]: ligand for the aryl hydrocarbon receptor (AhR) | Transcriptional pattern of NKT signature genes (Mttp, Cxcl16) (MODE-K cells): demonstrates a similar transcriptional pattern | Cellular responses (transcriptional changes and NKT responses) (MODE-K cells; preliminary experiments, FIGS. 2, 3): elicit similar cellular responses as oxazolone and TMO | AhR activation in HepG2 (AhR [4]): AhR activator | IL-10 production by iNKT cells co-cultured with conditioned cells (24.7 NKT hybridoma): exerts modulatory effects on iNKT cell responses similar oxazolone

Expression of AhR targets Cyp1a1 and IDO1 (AhR [5]): modulates well-characterized AhR targets
Compound: CCO/C=C1\N=C(c2ccccc2)OC1=O [oxazolone, 4-ethoxymethylene-2-phenyl-oxazol-5-one]
Cxcl16 transcript expression (MODE-K cells): induce CXCL16 | Mttp transcript expression (MODE-K cells): suppress Mttp | Transcriptional pattern of NKT signature genes (Mttp, Cxcl16) (MODE-K cells): modulates specific gene targets involved in NKT cell biology | Oxazolone colitis in Vil-Cre+ X AhR fl/fl mice ([2]; 3% presensitization, 1% intra-rectal, epithelial AhR deficiency): protected against oxazolone colitis | AhR reporter activation (AhR reporter): activate an AhR reporter | NFkB reporter activation (NFkB reporter): not an NFkB reporter | IL-10 production by iNKT cells co-cultured with conditioned cells (24.7 NKT hybridoma): diminished; also recorded: inhibited IL-10 production
